Data set [1] deals with T1, EiCsm6 (Enterococcus italicus, UniProt E6LHV2).
T1 construct: gene csm6; recombinant from E. coli BL21 Star (DE3); N-terminal His6-TEV tag cut; full gene; homodimer, ligand site at the CARF domain interface
T1 sequence (E6LHV2 1-430): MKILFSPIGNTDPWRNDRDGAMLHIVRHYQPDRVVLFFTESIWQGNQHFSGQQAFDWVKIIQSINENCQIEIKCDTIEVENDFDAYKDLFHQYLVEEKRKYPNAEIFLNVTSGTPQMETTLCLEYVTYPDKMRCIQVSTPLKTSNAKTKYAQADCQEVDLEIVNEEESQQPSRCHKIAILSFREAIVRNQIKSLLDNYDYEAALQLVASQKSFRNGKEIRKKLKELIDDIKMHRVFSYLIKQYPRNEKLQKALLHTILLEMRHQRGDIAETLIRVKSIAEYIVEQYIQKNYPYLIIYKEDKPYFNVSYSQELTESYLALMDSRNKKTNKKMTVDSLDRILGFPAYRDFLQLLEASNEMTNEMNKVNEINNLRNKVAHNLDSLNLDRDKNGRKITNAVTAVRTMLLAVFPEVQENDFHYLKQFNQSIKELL
The data set can be described thus: LC-MS degradation assay; RNaseAlert activation assay. It is filed as biochemical. As to conditions: 25 uM cA6 and 25 uM protein, 37 °C, 1 h; also allosteric activator at CARF domain.

The target of data set [2] is T1, EiCsm6. The data set can be described thus: fluorogenic RNaseAlert ribonuclease assay, initial velocities, variable Hill fit. It is filed as biochemical. To be noted: 5 nM EiCsm6, 10 mM HEPES pH 7.5, 50 mM KCl; allosteric activator at CARF domain, read-out HEPN RNase.
Data set [3] has as its target T1, EiCsm6. The data set is described as follows: X-ray crystal structure of the complex, […] Å. In kind it is binding. As to conditions: bound at the CARF domain dimer interface, one cFA6 per homodimer.
Data set [4] deals with the molecule itself. The data set is described as follows: crystal structure; EiCsm6 (120 uM) co-crystallised with the cA6 mimic cFA6 (288 uM); 100 mM HEPES pH 7.5, 1.6 M ammonium sulfate, 25 mM lithium perchlorate; space group P1, four homodimers in the asymmetric unit; 2.4 A.

As a reminder, the EC50 is the concentration that produces a half-maximal response. A word on the stoichiometry N: it is a count of units in the complex or per binding partner.

Regarding `Nc1ncnc2c1ncn2[C@@H]1O[C@@H]2COP(=O)(O)O[C@H]3[C@@H](O)[C@H](n4cnc5c(N)ncnc54)O[C@@H]3COP(=O)(O)O[C@H]3[C@@H](O)[C@H](n4cnc5c(N)ncnc54)O[C@@H]3COP(=O)(O)O[C@H]3[C@@H](O)[C@H](n4cnc5c(N)ncnc54)O[C@@H]3COP(=O)(O)O[C@H]3[C@@H](O)[C@H](n4cnc5c(N)ncnc54)O[C@@H]3COP(=O)(O)O[C@H]3[C@@H](O)[C@H](n4cnc5c(N)ncnc54)O[C@@H]3COP(=O)(O)O[C@H]2[C@H]1O` [cA6], the “LC-MS degradation assay; RNaseAlert activation assay” value at EiCsm6 [1] is “revealing that cA6 was efficiently degraded to yield a mixture of products”.
Consider `Nc1ncnc2c1ncn2[C@@H]1O[C@@H]2COP(=O)(O)O[C@H]3[C@@H](F)[C@H](n4cnc5c(N)ncnc54)O[C@@H]3COP(=O)(O)O[C@H]3[C@@H](F)[C@H](n4cnc5c(N)ncnc54)O[C@@H]3COP(=O)(O)O[C@H]3[C@@H](F)[C@H](n4cnc5c(N)ncnc54)O[C@@H]3COP(=O)(O)O[C@H]3[C@@H](F)[C@H](n4cnc5c(N)ncnc54)O[C@@H]3COP(=O)(O)O[C@H]3[C@@H](F)[C@H](n4cnc5c(N)ncnc54)O[C@@H]3COP(=O)(O)O[C@H]2[C@H]1F` [cFA6, 2’-,2’’-,2’’’,2’’’’,2’’’’’,2’’’’’’-hexadeoxy-2’-,2’’,2’’’,2’’’’,2’’’’’,2’’’’’’-hexafluoro-cyclic hexaadenosine monophosphate], for which the EC50 on EiCsm6 [2] was determined as 170 nM. Moreover, the “X-ray crystal structure of the complex, 2.4 Å” value on EiCsm6 [3] was “we co-crystallized EiCsm6 with cFA6 and determined the structure of the complex”.

B1: Enterococcus italicus Csm6 (EiCsm6), wild type (enzyme)
chain: MKILFSPIGNTDPWRNDRDGAMLHIVRHYQPDRVVLFFTESIWQGNQHFSGQQAFDWVKIIQSINENCQIEIKCDTIEVENDFDAYKDLFHQYLVEEKRKYPNAEIFLNVTSGTPQMETTLCLEYVTYPDKMRCIQVSTPLKTSNAKTKYAQADCQEVDLEIVNEEESQQPSRCHKIAILSFREAIVRNQIKSLLDNYDYEAALQLVASQKSFRNGKEIRKKLKELIDDIKMHRVFSYLIKQYPRNEKLQKALLHTILLEMRHQRGDIAETLIRVKSIAEYIVEQYIQKNYPYLIIYKEDKPYFNVSYSQELTESYLALMDSRNKKTNKKMTVDSLDRILGFPAYRDFLQLLEASNEMTNEMNKVNEINNLRNKVAHNLDSLNLDRDKNGRKITNAVTAVRTMLLAVFPEVQENDFHYLKQFNQSIKELL
notes: Csm6 ribonuclease (CARF and HEPN domains) of the type III CRISPR-Cas system of Enterococcus italicus DSM-15952; gene amplified from genomic DNA; Cloned into the 1B vector (Addgene 29653): N-terminal hexahistidine tag followed by a TEV site, removed with TEV protease; Crystallised with the small-molecule ligand cFA6 (PDB 6TUG) or with cA6; also called WT EiCsm6; source: E. coli BL21 Star (DE3), …
Take B1: the “stoichiometry N” value in data set [4] amounted to 2.

Source of the values: PMC7101355, “Activation and self-inactivation mechanisms of the cyclic oligoadenylate-dependent CRISPR ribonuclease Csm6” (Nature Communications, 2020).
